Test results: US8133729B2, “Biomimetic urothelium” (The University of York, priority 2002, dated 2012)
“Also recorded” adds a separate entry of the source.

Columns and labels:
[1] = target: T1, amiloride-sensitive sodium channels (Homo sapiens, UniProt P37088+P51168+P51170); test: Polarised sodium ion channel distribution: short circuit current and transepithelial potential difference on amiloride exposure; format: cell-based
T1 construct: The exposure of the apical surface of the urothelial tissue to amiloride reduced both the voltage and the current; endogenous in cells; host or cells: in vitro cultured, differentiated human urothelial cell sheet
Protocol: (§1) Polarised Sodium Ion Channel Distribution. In order to determine the presence and correct spatial location of sodium ion channels, short circuit current and transepithelial potential difference were measured under voltage and current clamped conditions respectively.

Na^+—K^+ ATPase = test: Short circuit current and transepithelial potential difference on ouabain exposure; format: cell-based, human
Protocol: as §1

[2] = exposure of basal surface of in vitro cultivated urothelium
[3] = exposure of apical surface of in vitro cultivated urothelium

T1 sequence (P51170 whole entry): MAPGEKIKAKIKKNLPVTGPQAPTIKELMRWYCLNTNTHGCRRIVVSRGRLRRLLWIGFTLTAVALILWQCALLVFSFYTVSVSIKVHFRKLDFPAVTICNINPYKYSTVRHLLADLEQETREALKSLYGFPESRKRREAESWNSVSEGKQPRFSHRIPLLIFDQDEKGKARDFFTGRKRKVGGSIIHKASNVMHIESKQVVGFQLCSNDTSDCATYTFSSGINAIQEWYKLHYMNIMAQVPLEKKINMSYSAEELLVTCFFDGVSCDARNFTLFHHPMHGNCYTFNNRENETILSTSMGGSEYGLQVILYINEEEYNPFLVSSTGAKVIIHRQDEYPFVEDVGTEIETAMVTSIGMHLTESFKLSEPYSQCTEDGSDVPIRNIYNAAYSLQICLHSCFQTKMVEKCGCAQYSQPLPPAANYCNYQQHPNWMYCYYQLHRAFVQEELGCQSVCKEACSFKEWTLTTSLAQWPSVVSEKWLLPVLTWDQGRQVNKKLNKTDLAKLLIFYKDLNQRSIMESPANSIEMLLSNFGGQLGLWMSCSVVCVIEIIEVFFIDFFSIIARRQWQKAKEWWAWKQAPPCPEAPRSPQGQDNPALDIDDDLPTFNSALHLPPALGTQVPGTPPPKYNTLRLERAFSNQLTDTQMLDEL
T1 sequence (P37088 whole entry): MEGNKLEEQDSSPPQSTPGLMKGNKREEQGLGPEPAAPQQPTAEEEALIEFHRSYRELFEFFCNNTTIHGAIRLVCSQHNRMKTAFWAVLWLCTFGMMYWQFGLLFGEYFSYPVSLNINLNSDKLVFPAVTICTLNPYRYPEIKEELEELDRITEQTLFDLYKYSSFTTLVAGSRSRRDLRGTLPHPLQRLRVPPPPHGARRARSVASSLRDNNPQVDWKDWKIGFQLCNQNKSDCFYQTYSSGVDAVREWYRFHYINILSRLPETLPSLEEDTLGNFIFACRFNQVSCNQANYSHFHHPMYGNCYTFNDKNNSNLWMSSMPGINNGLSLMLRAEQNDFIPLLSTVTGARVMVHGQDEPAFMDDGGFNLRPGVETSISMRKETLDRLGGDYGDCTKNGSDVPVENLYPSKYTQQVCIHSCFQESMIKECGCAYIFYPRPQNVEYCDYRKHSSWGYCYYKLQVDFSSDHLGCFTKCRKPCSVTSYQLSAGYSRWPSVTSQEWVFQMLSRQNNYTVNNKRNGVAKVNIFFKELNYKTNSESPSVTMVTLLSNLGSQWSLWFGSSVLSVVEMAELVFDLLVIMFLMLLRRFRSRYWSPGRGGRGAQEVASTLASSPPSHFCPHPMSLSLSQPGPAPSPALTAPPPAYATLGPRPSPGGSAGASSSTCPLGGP
T1 sequence (P51168 whole entry): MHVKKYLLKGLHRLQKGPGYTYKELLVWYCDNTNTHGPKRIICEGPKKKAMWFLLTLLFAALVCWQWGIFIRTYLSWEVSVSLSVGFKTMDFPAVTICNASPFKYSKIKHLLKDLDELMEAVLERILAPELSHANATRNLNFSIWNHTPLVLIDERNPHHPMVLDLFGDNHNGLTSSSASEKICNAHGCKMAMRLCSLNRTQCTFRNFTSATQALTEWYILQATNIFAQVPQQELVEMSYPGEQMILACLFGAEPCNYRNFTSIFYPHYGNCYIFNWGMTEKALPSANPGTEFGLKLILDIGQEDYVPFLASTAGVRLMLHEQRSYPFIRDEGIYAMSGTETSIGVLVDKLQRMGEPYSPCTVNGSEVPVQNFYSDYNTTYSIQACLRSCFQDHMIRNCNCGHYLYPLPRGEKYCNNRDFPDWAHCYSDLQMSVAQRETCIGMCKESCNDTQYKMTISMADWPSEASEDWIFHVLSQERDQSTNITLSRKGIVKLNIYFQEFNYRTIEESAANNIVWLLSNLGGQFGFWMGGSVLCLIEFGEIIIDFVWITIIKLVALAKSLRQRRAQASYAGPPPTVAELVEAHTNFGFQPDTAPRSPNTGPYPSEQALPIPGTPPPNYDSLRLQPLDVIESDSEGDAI

Compound	effect on transepithelial potential difference (voltage) ([1]; exposure of apical surface of in vitro cultivated urothelium, current clamped)	effect on short circuit current ([1]; exposure of apical surface of in vitro cultivated urothelium, voltage clamped)	effect on short circuit current [1, 2]	effect on transepithelial potential difference (voltage) [1, 2]	effect on short circuit current (Na^+—K^+ ATPase; [3])	effect on transepithelial potential difference (voltage) (Na^+—K^+ ATPase; [3])	effect on short circuit current (Na^+—K^+ ATPase; [2])	effect on transepithelial potential difference (voltage) (Na^+—K^+ ATPase; [2])
N=C(N)NC(=O)c1nc(Cl)c(N)nc1N [amiloride]	reduced both the voltage and the current in a dose-dependent manner	dose-responsive decrease in short circuit current; also recorded: reduced both the voltage and the current in a dose-dependent manner	did not affect either the voltage or the current	did not affect either the voltage or the current				
C[C@@H]1O[C@@H](O[C@H]2C[C@@H](O)[C@]3(CO)[C@H]4[C@H](O)C[C@]5(C)[C@@H](C6=CC(=O)OC6)CC[C@]5(O)[C@@H]4CC[C@]3(O)C2)[C@H](O)[C@H](O)[C@H]1O [ouabain]					only a minor effect on the measured voltage and current	only a minor effect on the measured voltage and current	marked reduction of both voltage and current	marked reduction of both voltage and current
